# Experimental data published in patent US20240285571A1, “METHODS OF TREATING BONE INFECTIONS” (MICROBION CORPORATION, priority 2020, published 2024).
# Columns and labels:
# Assay in all cases: MIC of baseline clinical isolates (Example 8)
# Type in all cases: cell-based
# S. aureus (MRSA, MSSA) = details: Staphylococcus aureus, MRSA baseline isolates (N′ = 4), central laboratory, mITT
# Experimental: (§1) Microbiology was assessed on Day 1 and at the time of any subsequent surgical procedure at the index site. Samples were collected from the infected bone site or involved tissue adjacent to any implant(s), swabs of the deep infection site, and the superficial tissue/wound closure/sinus tract site. […] Parallel sets of samples were analyzed by the local clinical site laboratory to guide patient antibiotic treatment.
# Staphylococcus pasteuri = Staphylococcus pasteuri baseline isolates (N′ = 1), central laboratory, mITT
# Experimental: as §1
# Staphylococcus arlettae = Staphylococcus arlettae baseline isolates (N′ = 1), central laboratory, mITT
# Experimental: as §1
# Staphylococcus hominis = Staphylococcus hominis baseline isolates (N′ = 1), central laboratory, mITT
# Experimental: as §1
# [1] = tested on: Staphylococcus haemolyticus; details: Staphylococcus haemolyticus baseline isolates (N′ = 1), central laboratory, mITT
# Experimental: as §1
# [2] = tested on: Staphylococcus lugdunensis; details: Staphylococcus lugdunensis baseline isolates (N′ = 3), central laboratory, mITT
# Experimental: as §1
# S. epidermidis = details: Staphylococcus epidermidis baseline isolates (N′ = 5), central laboratory, mITT
# Experimental: as §1
# [3] = tested on: Corynebacterium amycolatum; details: Corynebacterium amycolatum baseline isolates (N′ = 1), central laboratory, mITT
# Experimental: (§2) Microbiology was assessed on Day 1 and at the time of any subsequent surgical procedure at the index site. Samples were collected from the infected bone site or involved tissue adjacent to any implant(s), swabs of the deep infection site, and the superficial tissue/wound closure/sinus tract site. Isolation and identification of aerobic and anerobic bacteria was conducted at a central microbiology laboratory (IHMA, Schaumburg, IL) and susceptibility of the isolates to MBN-101 (BisEDT) and comparator agents was performed per Clinical and Laboratory Standards Institute (CLSI). Parallel sets of samples were analyzed by the local clinical site laboratory to guide patient antibiotic treatment.
# Streptococcus oralis = Streptococcus oralis baseline isolates (N′ = 1), central laboratory, mITT
# Experimental: as §2
# [4] = tested on: Corynebacterium resistens; details: Corynebacterium resistens baseline isolates (N′ = 1), central laboratory, mITT
# Experimental: as §2
# Corynebacterium jeikeium = Corynebacterium jeikeium baseline isolates (N′ = 2), central laboratory, mITT
# Experimental: as §2
# [5] = tested on: non-speciated Corynebacterium; details: Corynebacterium non-speciated baseline isolates (N′ = 2), central laboratory, mITT
# Experimental: as §2
# Dermabacter hominis = Dermabacter hominis baseline isolates (N′ = 1), central laboratory, mITT
# Experimental: as §2
Mean MIC (Staphylococcus pasteuri) [mg/L],Mean MIC (Staphylococcus arlettae) [mg/L],Mean MIC (Staphylococcus hominis) [mg/L],Mean MIC [2] [mg/L],Mean MIC (S. epidermidis) [mg/L],Compound,"n (% resistant) (S. aureus (MRSA, MSSA))",n (% resistant) (Staphylococcus arlettae),Mean MIC [1] [mg/L],n (% resistant) [1],n (% resistant) [2],n (% resistant) (S. epidermidis),Mean MIC [3] [mg/L],n (% resistant) [3],Mean MIC (Streptococcus oralis) [mg/L],n (% resistant) (Streptococcus oralis),Mean MIC [4] [mg/L],n (% resistant) [4],Mean MIC (Corynebacterium jeikeium) [mg/L],n (% resistant) (Corynebacterium jeikeium),Mean MIC [5] [mg/L],other results
0.06,0.25,0.12,0.05,0.18,CN(C)c1ccc(O)c2c1C[C@H]1C[C@H]3[C@H](N(C)C)C(O)=C(C(N)=O)C(=O)[C@@]3(O)C(O)=C1C2=O [MIN],0 (0.0) n (%),0 (0.0) n (%),0.12,0 (0.0) n (%),0 (0 0) n (%),0 (0.0) n (%),,,,,,,,,,"Mean MIC (S. aureus (MRSA, MSSA)): 0.11 mg/L; n (% resistant) (Staphylococcus pasteuri): 0 (0.0) n (%); n (% resistant) (Staphylococcus hominis): 0 (0.0) n (%)"
,,,,,CO/N=C(\C(=O)N[C@@H]1C(=O)N2C(C(=O)O)=C(CSc3nc(=O)c(O)nn3C)CS[C@H]12)c1csc(N)n1 [CRO],,,,,,,1.00,0 (0.0) n (%),0.06,0 (0.0) n (%),4.00,1 (100.0) n (%),4.00,2 (100.0) n (%),0.75,n (% resistant) [5]: 0 (0.0) n (%); Mean MIC (Dermabacter hominis): 0.50 mg/L; n (% resistant) (Dermabacter hominis): 0 (0.0) n (%)
0.25,0.50,4.00,7.33,2.60,CC1(C)S[C@@H]2[C@H](NC(=O)[C@H](N)c3ccccc3)C(=O)N2[C@H]1C(=O)O [AMP],0 (0.0) n (%),0 (0.0) n (%),16.00,0 (0.0) n (%),0 (0.0) n (%),0 (0.0) n (%),,,,,,,,,,"Mean MIC (S. aureus (MRSA, MSSA)): 28.00 mg/L; n (% resistant) (Staphylococcus pasteuri): 0 (0.0) n (%); n (% resistant) (Staphylococcus hominis): 0 (0.0) n (%)"
0.25,2.00,4.00,2.83,125,Cc1onc(-c2ccccc2)c1C(=O)N[C@@H]1C(=O)N2[C@@H]1SC(C)(C)[C@@H]2C(=O)O [OXA],4 (100.0) n (%),1 (100.0) n (%),4.00,1 (100.0) n (%),2. (66.7) n (%),2 (40.0) n (%),,,,,,,,,,n (% resistant) (Staphylococcus pasteuri): 0 (0.0) n (%); n (% resistant) (Staphylococcus hominis): 1 (100.0) n (%)
,,,,,CC[C@H]1OC(=O)[C@H](C)[C@@H](O[C@H]2C[C@@](C)(OC)[C@@H](O)[C@H](C)O2)[C@H](C)[C@@H](O[C@@H]2O[C@H](C)C[C@H](N(C)C)[C@H]2O)[C@](C)(O)C[C@@H](C)C(=O)[C@H](C)[C@@H](O)[C@]1(C)O [ERY],,,,,,,4.00,1 (100.0) n (%),1.00,1 (100.0) n (%),0.02,0 (0.0) n (%),2.25,1 (50.0) n (%),2.02,n (% resistant) [5]: 1 (50.0) n (%); Mean MIC (Dermabacter hominis): 2.00 mg/L; n (% resistant) (Dermabacter hominis): 1 (100.0) n (%)
,,,,,CC1(C)S[C@@H]2[C@H](NC(=O)Cc3ccccc3)C(=O)N2[C@H]1C(=O)O [PEN],,,,,,,1.00,0 (0.0) n (%),0.06,0 (0.0) n (%),4.00,1 (100.0) n (%),4.00,2 (100.0) n (%),2.06,Mean MIC (Dermabacter hominis): 0.50 mg/L; n (% resistant) (Dermabacter hominis): 0 (0.0) n (%)

Compound,Mean MIC (Staphylococcus pasteuri) [mg/L],Mean MIC (Staphylococcus arlettae) [mg/L],Mean MIC (Staphylococcus hominis) [mg/L],Mean MIC [2] [mg/L],Mean MIC (S. epidermidis) [mg/L],"n (% resistant) (S. aureus (MRSA, MSSA))",n (% resistant) (Staphylococcus arlettae),Mean MIC [1] [mg/L],n (% resistant) [1],n (% resistant) [2],n (% resistant) (S. epidermidis),Mean MIC [3] [mg/L],n (% resistant) [3],Mean MIC (Streptococcus oralis) [mg/L],n (% resistant) (Streptococcus oralis),Mean MIC [4] [mg/L],n (% resistant) [4],Mean MIC (Corynebacterium jeikeium) [mg/L],n (% resistant) (Corynebacterium jeikeium),Mean MIC [5] [mg/L],other results
CC1(C)S[C@@H]2[C@H](NC(=O)[C@H](N)c3ccc(O)cc3)C(=O)N2[C@H]1C(=O)O.O=C(O)[C@H]1/C(=C/CO)O[C@@H]2CC(=O)N21 [AMC],0.12,0.25,2.00,3.67,1.05,0 (0.0) n (%),0 (0.0) n (%),2.00,0 (0.0) n (%),0 (0.0) n (%),0 (0.0) n (%),1.00,0 (0.0) n (%),0.06,0 (0.0) n (%),8.00,0 (0.0) n (%),3.00,0 (0.0) n (%),4.03,"Mean MIC (S. aureus (MRSA, MSSA)): 8.00 mg/L; n (% resistant) (Staphylococcus pasteuri): 0 (0.0) n (%); n (% resistant) (Staphylococcus hominis): 0 (0.0) n (%); n (% resistant) [5]: 0 (0.0) n (%); Mean MIC (Dermabacter hominis): 0.50 mg/L; n (% resistant) (Dermabacter hominis): 0 (0.0) n (%)"
COc1cc(Cc2cnc(N)nc2N)cc(OC)c1OC.Cc1cc(NS(=O)(=O)c2ccc(N)cc2)no1 [SXT],0.12,8.00,8.00,0.16,4.42,1 (25.0) n (%),1 (100.0) n (%),0.25,10.0 n (%),0 (0.0) n (%),3 (60.0) n (%),0.25,0 (0.0) n (%),0.12,0 (0.0) n (%),2.00,0 (0.0) n (%),2.00,0 (0.0) n (%),2.25,"Mean MIC (S. aureus (MRSA, MSSA)): 2.09 mg/L; Mean MIC (Dermabacter hominis): 4.00 mg/L"
